Assay results reported in patent US20130261045A1, “GREEN TEA POLYPHENOL ALPHA SECRETASE ENHANCERS AND METHODS OF USE” (UNIVERSITY OF SOUTH FLORIDA, priority 2005, published 2013).

Legend:
APP cleavage processing = test: Western blot/immunoprecipitation of APP cleavage (CTFs, sAPP-α, holo APP) in APP-transfected N2a cells; assay type: cell-based, murine
Experimental: Cell cultured supernatants were collected and cell lysates were prepared from these cultured cells.
(§1) Cultured cells and mouse brain were lysed in ice-cold lysis buffer described above, and an aliquot corresponding to 50 μg of total protein was electrophoretically separated using 16.5% Tris-tricine gels. Electrophoresed proteins were then transferred to PVDF membranes (Bio-Rad), washed in dH2O, and blocked for 1 hour at ambient temperature in Tris-buffered saline (TBS; Bio-Rad) containing 5% (w/v) for non-fat dry milk. After blocking, membranes were hybridized for 1 hour at ambient temperature with various antibodies, including against the C- (369), N-terminus of APP (22C11), the N-terminus of Aβ (6E10), and ADAM10 and TACE (Calbiochem). Membranes were then washed 3× for 5 min each in dH2O and incubated for 1 hour at ambient temperature with the appropriate HRP-conjugated secondary antibody (1:1,000, Pierce Biotechnology, Inc. Rockford, Ill.). All antibodies were diluted in TBS containing 5% (w/v) of non-fat dry milk. Blots were developed using the luminal reagent (Pierce Biotechnology). Densitometric analysis was done using the Fluor-S Multimager™ with Quantity One™ software (Bio-Rad). Immunoprecipitation was performed for detection of sAPP-α, sAPP-β and Aβ by incubating 200 μg of total protein of each sample with 6E10 (1:100; Signet) or 22C11 (1:100; Roche, Basel, Switzerland) overnight with gentle rocking at 4° C., and 10 μL of 50% protein A-Sepharose beads were then added to the sample (1:10; Sigma) prior to gentle rocking for an additional 4 hours at 4° C. Following washes with 1× cell lysis buffer, samples were subjected to Western blot as described above. Antibodies used for Western blot included antibody 369 (1:1,000), anti-C-terminal APP antibody (1:500; Chemicon, Temecula, Calif.), BAM-10 (1:1,000; Sigma), 6E10 (1:1,000; Signet) or anti-Actin antibody (1:1,500; as an internal reference control; Roche). α-, β- and γ-secretase activities were quantified in cell lysates and mouse brain homogenates using available kits based on secretase-specific peptides conjugated to fluorogenic receptor molecules (R&D Systems, Minneapolis, Minn.).

ADAM10 [1] = test: Western blot of ADAM10 maturation in N9 microglial cells; assay type: cell-based; details: various doses, 8 h
Experimental: Cultured cells were lysed in ice-cold lysis buffer described above, and an aliquot corresponding to 50 μg of total protein was electrophoretically separated using 16.5% Tris-tricine gels. Electrophoresed proteins were then transferred to PVDF membranes (Bio-Rad, Richmond, Calif.), washed in ddH2O, and blocked for 1 h at ambient temperature in Tris-buffered saline (TBS; Bio-Rad) containing 5% (w/v) non-fat dry milk. After blocking, membranes were hybridized for 1 h at ambient temperature with various primary antibodies. Membranes were then washed 3 times for 5 min each in ddH2O and incubated for 1 h at ambient temperature with the appropriate HRP-conjugated secondary antibody (1:1,000, Pierce Biotechnology, Inc. Rockford, Ill.). All antibodies were diluted in TBS containing 5% (w/v) of non-fat dry milk. Blots were developed using the luminol reagent (Pierce Biotechnology). Densitometric analysis was done using the Fluor-S MultiImager™ with Quantity One™ software (Bio-Rad). […] Antibodies used for Western blot included: antibody 369 (which recognizes the carboxyl-terminus of APP; 1:1,500), clone 22C11 (against the amino-terminus of APP; 1:1,500), clone 6E10 (against amino acids 1-17 of Aβ; 1:1,500), anti-ADAM9 (1:500), and antibodies against ADAM10 (1:500), ADAM17 (1:500) or actin (1:1,500; as an internal reference control).

transgenic APPsw mice = test: EGCG IP treatment of transgenic APPsw mice (brain Aβ, APP fragments, secretase activity, plaques); assay type: in vivo, mouse
Experimental: Soluble Aβ (FIG. 4B) and insoluble Aβ prepared with 5 M guanidine (FIG. 4C) were analyzed by ELISA. Data are represented as mean+/−SEM of Aβ (pg/mg protein). […] (FIG. 4D) α-, β- and γ-secretase cleavage activities were analyzed by secretase cleavage activity kits. Data are presented as mean+/−SEM of fluorescence units/mg protein. […] (FIG. 4E) Mouse brain paraffin sections stained with anti-human Aβ antibody (4G8); left control PBS-treated mice. […] Top, cingulated cortex (CC); Middle, hippocampus (H); Bottom, entorhinal cortex (EC). […] (FIG. 4F) illustrates bar graphs comparing the Aβ burden (%) for transgenic APPsw mice treated with two different compounds.
Cultured cells were lysed in ice-cold-lysis buffer (20 mM Tris, pH 7.5, 150 mM NaCl, 1 mM EDTA, 1 mM EGTA, 1% v/v Triton X-100, 2.5 mM sodium pyropgosphate, 1 mM β-glycerolphosphate, 1 mM Na3VO4, 1 μg/mL leupeptin, 1 mM PMSF) as previously described (Tan et al., 2002). Mouse brains were isolated under sterile conditions on ice and placed in ice-cold lysis buffer. Brains were then sonicated on ice for approximately 3 min, allowed to stand for 15 min at 4° C., and centrifuged at 15,000 rpm for 15 min. Total Aβ1-42 species were detected by acid extraction of brain homogenates in 5 M guanidine buffer (ret), followed by a 1:10 dilution in lysis buffer. Soluble Aβ1-42 was directly detected in cultured cell lysates or brain homogenates prepared with lysis buffer described above by a 1:4 or 1:10 dilution, respectively. Aβ1-42 was quantified in these samples using the Aβ1-42 ELISA kit (BioSource, Camarillo, Calif.) in accordance with the manufacturer's instructions, except that standards included a 0.5 M guanidine buffer.
as §1

ADAM10 [2] = test: Western blot of ADAM10 maturation in SweAPP N2a cells; assay type: cell-based, murine
Experimental: Cultured cells were lysed in ice-cold lysis buffer described above, and an aliquot corresponding to 50 μg of total protein was electrophoretically separated using 16.5% Tris-tricine gels. Electrophoresed proteins were then transferred to PVDF membranes (Bio-Rad, Richmond, Calif.), washed in ddH2O, and blocked for 1 h at ambient temperature in Tris-buffered saline (TBS; Bio-Rad) containing 5% (w/v) non-fat dry milk. After blocking, membranes were hybridized for 1 h at ambient temperature with various primary antibodies. Membranes were then washed 3 times for 5 min each in ddH2O and incubated for 1 h at ambient temperature with the appropriate HRP-conjugated secondary antibody (1:1,000, Pierce Biotechnology, Inc. Rockford, Ill.). All antibodies were diluted in TBS containing 5% (w/v) of non-fat dry milk. Blots were developed using the luminol reagent (Pierce Biotechnology). Densitometric analysis was done using the Fluor-S MultiImager™ with Quantity One™ software (Bio-Rad). For examining sAPP-α, conditioned medium was collected following treatment according to a modified protocol from Chen and Fernandez (Chen et al., 2004). sAPP-α was extracted using 3K Nanosep centrifugal filters (Pall Life Sciences, Ann Arbor, Mich.) and protein concentrate was prepared for the aforementioned electrophoresis. […]

[3] = IP 20 mg/kg daily for 60 days, ELISA

For `O=C(O[C@@H]1Cc2c(O)cc(O)cc2O[C@@H]1c1cc(O)c(O)c(O)c1)c1cc(O)c(O)c(O)c1` [EGCG, (−)-epigallocatechin-3-gallate], the “secreted form of APP-α (sAPP-α) in cell cultured medium” value (APP cleavage processing; 20 μM for 18 hours) was “markedly increased”, the “total APP and holo APP expression” value (APP cleavage processing; EGCG treated cells) was “not any changes” and the “α-CTF generation, time course” value (APP cleavage processing; in 3 to 4 hours and then through to 8 hours after EGCG treatment) was “drastically increased”. The ADAM10 maturation (ADAM10 [1]) was “dose-dependently increased”, the “elevation of α-secretase cleavage activity in brain” value (transgenic APPsw mice; IP 20 mg/kg daily for 60 days) was 28% and the “sAPP-α in brain versus PBS” value (transgenic APPsw mice; IP 20 mg/kg daily for 60 days) was “markedly increased”. For the same compound, the “α-CTF in brain versus PBS” value (transgenic APPsw mice; IP 20 mg/kg daily for 60 days) was “markedly increased”, the “reduction of soluble Aβ1-42 level in brain” value (transgenic APPsw mice; [3]) was roughly 50% and the “reduction of total Aβ1-42 level in brain” value (transgenic APPsw mice; [3]) was roughly 25%. The “reduction of 4G8 immunoreactive and thioflavin S positive Aβ deposits” value (transgenic APPsw mice; IP, 14 months of age, across the three brain regions examined) was 32-36%, the “decrease of insoluble 5 M guanidine-prepared Aβ levels” value (transgenic APPsw mice; IP, ELISA, FIG. 4C) was “approximately 26%” and the “activity of β-secretase cleavage in brain” value (transgenic APPsw mice; in vivo, FIG. 4d) was “not decreases”. For the same compound, the “mature ADAM10, temporal analysis” value (ADAM10 [2]; 20 μM, as early as 30 min, continued to increase through 120 min) was “significant increases” and the “mature ADAM10 (~60 kDa isoform) protein level” value (ADAM10 [2]; various doses of EGCG, 8 h) was “dose-dependently increased”.
